Assay: xn = mol fraction of the nth substance listed
Details: 100 kPa, Liquid; for viscosity: Falling or rolling sphere viscometry; for mass density: Vibrating tube method

CCCCCCO [hexan-1-ol] + CCO
Details | mass density [kg/m3] | viscosity [mPa·s]
293.15 K, x2 = 0 | 818.9 | 5.35
293.15 K, x2 = 0.1001 | 816.7 | 4.67
293.15 K, x2 = 0.2003 | 815.1 | 4.15
293.15 K, x2 = 0.3004 | 813.3 | 3.66
293.15 K, x2 = 0.4006 | 811.6 | 3.19
293.15 K, x2 = 0.4998 | 808.7 | 2.76
293.15 K, x2 = 0.6009 | 806 | 2.41
293.15 K, x2 = 0.7001 | 802.9 | 2.03
293.15 K, x2 = 0.7995 | 799.2 | 1.71
293.15 K, x2 = 0.9001 | 794.9 | 1.43
298.15 K, x2 = 0 | 815.3 | 4.56
298.15 K, x2 = 0.1001 | 813.1 | 4.02
298.15 K, x2 = 0.2003 | 811.5 | 3.6
298.15 K, x2 = 0.3004 | 809.7 | 3.19
298.15 K, x2 = 0.4006 | 807.9 | 2.8
298.15 K, x2 = 0.4998 | 805 | 2.44
298.15 K, x2 = 0.6009 | 802.2 | 2.14
298.15 K, x2 = 0.7001 | 798.9 | 1.81
298.15 K, x2 = 0.7995 | 795.2 | 1.54
298.15 K, x2 = 0.9001 | 790.8 | 1.29
303.15 K, x2 = 0 | 811.7 | 3.9
303.15 K, x2 = 0.1001 | 809.5 | 3.48
303.15 K, x2 = 0.2003 | 807.8 | 3.14
303.15 K, x2 = 0.3004 | 806 | 2.8
303.15 K, x2 = 0.4006 | 804.1 | 2.47
303.15 K, x2 = 0.4998 | 801.2 | 2.17
303.15 K, x2 = 0.6009 | 798.4 | 1.91
303.15 K, x2 = 0.7001 | 795 | 1.63
303.15 K, x2 = 0.7995 | 791.2 | 1.39
303.15 K, x2 = 0.9001 | 786.6 | 1.17
308.15 K, x2 = 0 | 808.1 | 3.36
308.15 K, x2 = 0.1001 | 805.9 | 3.03
308.15 K, x2 = 0.2003 | 804.2 | 2.75
308.15 K, x2 = 0.3004 | 802.3 | 2.47
308.15 K, x2 = 0.4006 | 800.4 | 2.19
308.15 K, x2 = 0.4998 | 797.4 | 1.93
308.15 K, x2 = 0.6009 | 794.5 | 1.71
308.15 K, x2 = 0.7001 | 791.1 | 1.47
308.15 K, x2 = 0.7995 | 787.1 | 1.26
308.15 K, x2 = 0.9001 | 782.5 | 1.07
313.15 K, x2 = 0 | 804.5 | 2.91
313.15 K, x2 = 0.1001 | 802.2 | 2.65
313.15 K, x2 = 0.2003 | 800.5 | 2.42
313.15 K, x2 = 0.3004 | 798.5 | 2.18
313.15 K, x2 = 0.4006 | 796.6 | 1.94
313.15 K, x2 = 0.4998 | 793.6 | 1.73
313.15 K, x2 = 0.6009 | 790.6 | 1.54
313.15 K, x2 = 0.7001 | 787.1 | 1.32
313.15 K, x2 = 0.7995 | 783 | 1.14
313.15 K, x2 = 0.9001 | 778.2 | 0.97
318.15 K, x2 = 0 | 800.8 | 2.54
318.15 K, x2 = 0.1001 | 798.5 | 2.33
318.15 K, x2 = 0.2003 | 796.7 | 2.14
318.15 K, x2 = 0.3004 | 794.8 | 1.94
318.15 K, x2 = 0.4006 | 792.7 | 1.73
318.15 K, x2 = 0.4998 | 789.7 | 1.55
318.15 K, x2 = 0.6009 | 786.6 | 1.39
318.15 K, x2 = 0.7001 | 783 | 1.2
318.15 K, x2 = 0.7995 | 778.9 | 1.04
318.15 K, x2 = 0.9001 | 774 | 0.89
323.15 K, x2 = 0 | 797.1 | 2.23
323.15 K, x2 = 0.1001 | 794.8 | 2.06
323.15 K, x2 = 0.2003 | 793 | 1.9
323.15 K, x2 = 0.3004 | 790.9 | 1.73
323.15 K, x2 = 0.4006 | 788.9 | 1.55
323.15 K, x2 = 0.4998 | 785.7 | 1.39
323.15 K, x2 = 0.6009 | 782.6 | 1.25
323.15 K, x2 = 0.7001 | 779 | 1.09
323.15 K, x2 = 0.7995 | 774.7 | 0.94
323.15 K, x2 = 0.9001 | 769.7 | 0.81
328.15 K, x2 = 0 | 793.4 | 1.97
328.15 K, x2 = 0.1001 | 791 | 1.82
328.15 K, x2 = 0.2003 | 789.2 | 1.69
328.15 K, x2 = 0.3004 | 787.1 | 1.54
328.15 K, x2 = 0.4006 | 784.9 | 1.39
328.15 K, x2 = 0.4998 | 781.8 | 1.25
328.15 K, x2 = 0.6009 | 778.6 | 1.13
328.15 K, x2 = 0.7001 | 774.8 | 0.99
328.15 K, x2 = 0.7995 | 770.4 | 0.86
328.15 K, x2 = 0.9001 | 765.3 | 0.75

CCCCCCCO [heptan-1-ol] + CCO
Details | mass density [kg/m3] | viscosity [mPa·s]
293.15 K, x2 = 0 | 822.3 | 7.15
293.15 K, x2 = 0.1 | 820.6 | 6.21
293.15 K, x2 = 0.2004 | 818.7 | 5.36
293.15 K, x2 = 0.3007 | 816.9 | 4.63
293.15 K, x2 = 0.3995 | 814.7 | 4.04
293.15 K, x2 = 0.5007 | 812.1 | 3.41
293.15 K, x2 = 0.5995 | 809 | 2.85
293.15 K, x2 = 0.7001 | 805.5 | 2.34
293.15 K, x2 = 0.8002 | 801.4 | 1.9
293.15 K, x2 = 0.9003 | 796.5 | 1.52
298.15 K, x2 = 0 | 818.8 | 6.07
298.15 K, x2 = 0.1 | 817.1 | 5.29
298.15 K, x2 = 0.2004 | 815.1 | 4.59
298.15 K, x2 = 0.3007 | 813.3 | 4
298.15 K, x2 = 0.3995 | 811.1 | 3.51
298.15 K, x2 = 0.5007 | 808.4 | 2.99
298.15 K, x2 = 0.5995 | 805.3 | 2.52
298.15 K, x2 = 0.7001 | 801.6 | 2.09
298.15 K, x2 = 0.8002 | 797.4 | 1.71
298.15 K, x2 = 0.9003 | 792.4 | 1.38
303.15 K, x2 = 0 | 815.3 | 5.18
303.15 K, x2 = 0.1 | 813.6 | 4.54
303.15 K, x2 = 0.2004 | 811.6 | 3.96
303.15 K, x2 = 0.3007 | 809.7 | 3.48
303.15 K, x2 = 0.3995 | 807.4 | 3.07
303.15 K, x2 = 0.5007 | 804.7 | 2.64
303.15 K, x2 = 0.5995 | 801.5 | 2.23
303.15 K, x2 = 0.7001 | 797.8 | 1.87
303.15 K, x2 = 0.8002 | 793.5 | 1.54
303.15 K, x2 = 0.9003 | 788.3 | 1.25
308.15 K, x2 = 0 | 811.8 | 4.44
308.15 K, x2 = 0.1 | 810 | 3.91
308.15 K, x2 = 0.2004 | 808 | 3.44
308.15 K, x2 = 0.3007 | 806 | 3.03
308.15 K, x2 = 0.3995 | 803.8 | 2.7
308.15 K, x2 = 0.5007 | 800.9 | 2.33
308.15 K, x2 = 0.5995 | 797.7 | 1.99
308.15 K, x2 = 0.7001 | 793.9 | 1.67
308.15 K, x2 = 0.8002 | 789.5 | 1.39
308.15 K, x2 = 0.9003 | 784.2 | 1.13
313.15 K, x2 = 0 | 808.2 | 3.83
313.15 K, x2 = 0.1 | 806.4 | 3.39
313.15 K, x2 = 0.2004 | 804.4 | 3
313.15 K, x2 = 0.3007 | 802.4 | 2.66
313.15 K, x2 = 0.3995 | 800.1 | 2.38
313.15 K, x2 = 0.5007 | 797.2 | 2.07
313.15 K, x2 = 0.5995 | 793.8 | 1.78
313.15 K, x2 = 0.7001 | 790 | 1.5
313.15 K, x2 = 0.8002 | 785.4 | 1.26
313.15 K, x2 = 0.9003 | 780 | 1.03
318.15 K, x2 = 0 | 804.6 | 3.33
318.15 K, x2 = 0.1 | 802.8 | 2.96
318.15 K, x2 = 0.2004 | 800.7 | 2.63
318.15 K, x2 = 0.3007 | 798.7 | 2.35
318.15 K, x2 = 0.3995 | 796.3 | 2.11
318.15 K, x2 = 0.5007 | 793.4 | 1.85
318.15 K, x2 = 0.5995 | 790 | 1.6
318.15 K, x2 = 0.7001 | 786 | 1.36
318.15 K, x2 = 0.8002 | 781.4 | 1.14
318.15 K, x2 = 0.9003 | 775.8 | 0.94
323.15 K, x2 = 0 | 801 | 2.89
323.15 K, x2 = 0.1 | 799.1 | 2.59
323.15 K, x2 = 0.2004 | 797 | 2.31
323.15 K, x2 = 0.3007 | 794.9 | 2.08
323.15 K, x2 = 0.3995 | 792.5 | 1.88
323.15 K, x2 = 0.5007 | 789.5 | 1.65
323.15 K, x2 = 0.5995 | 786 | 1.44
323.15 K, x2 = 0.7001 | 782 | 1.23
323.15 K, x2 = 0.8002 | 777.2 | 1.04
323.15 K, x2 = 0.9003 | 771.5 | 0.87
328.15 K, x2 = 0 | 797.4 | 2.54
328.15 K, x2 = 0.1 | 795.4 | 2.28
328.15 K, x2 = 0.2004 | 793.3 | 2.05
328.15 K, x2 = 0.3007 | 791.2 | 1.84
328.15 K, x2 = 0.3995 | 788.7 | 1.68
328.15 K, x2 = 0.5007 | 785.6 | 1.48
328.15 K, x2 = 0.5995 | 782.1 | 1.29
328.15 K, x2 = 0.7001 | 777.9 | 1.11
328.15 K, x2 = 0.8002 | 773 | 0.94
328.15 K, x2 = 0.9003 | 767.1 | 0.79
